This is an account of results in PubChem BioAssay AID1552 (Sanford-Burnham Center for Chemical Genomics, 2009).

Structures are written as SMILES. Calls of active or inactive are those of the source. The rule behind the calls is not given here.

This experiment deals with Ubiquitin-conjugating enzyme E2 N (Homo sapiens) (UniProt P61088). The experiment in a line: NMR detection of UBE2N ligand binding – biophysical, purified protein (AID 1552). The conditions noted are these: NMR binding to purified UBE2N.
Ubiquitin-conjugating enzyme E2 N (Homo sapiens), sequence (P61088 whole entry, looked up): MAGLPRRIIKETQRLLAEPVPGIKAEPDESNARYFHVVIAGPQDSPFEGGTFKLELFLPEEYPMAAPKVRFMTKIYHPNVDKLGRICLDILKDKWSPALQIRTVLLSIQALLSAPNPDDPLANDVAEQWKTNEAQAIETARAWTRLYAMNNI
For the compound `CCOC(=O)c1cc(C)n(C)n1`, the Kd was > 4 mM (inactive).

In the case of `Cc1cc(=O)n2ncn(Cc3ccccc3)c2n1`, the Kd is > 4 mM (inactive).

In the case of `Cc1cc(C(=O)NC(C)c2ccncc2)cs1` (stereo not given), the Kd was > 4 mM (inactive).

Turning to `OCC1CCCCCN1` (stereo not given), the Kd is > 4 mM (inactive).

For `CC1(C)CC[C@]2(C(=O)O)CC[C@]3(C)C(=CCC4[C@@]5(C)CC[C@@H](O)C(C)(C)C5CC[C@]43C)C2C1` (stereo not given in full), the Kd was > 4 mM (inactive).

Consider `Cn1cnc2ccc([N+](=O)[O-])cc2c1=O`, for which the Kd was > 4 mM (inactive).

With `Cc1c(N=CN2CCOCC2)c(=O)n(C)c(=O)n1C`, the Kd is > 4 mM (inactive).

In the case of `NC(=S)NC1CCS(=O)(=O)C1` (stereo not given), the Kd was > 4 mM (inactive).

On to `C=C1C2=CC(=O)O[C@@H](c3ccoc3)[C@]2(C)CCC1[C@@]1(C)C=CC(=O)C(C)(C)[C@@H]1CC(=O)OC` (stereo not given in full), for which the Kd was > 4 mM (inactive).

Take `COc1cc2c(cc1O)CCNC2C` (stereo not given): the Kd is > 4 mM (inactive).

Turning to `Cc1cc(C)nc(/N=C(\N)N2CCc3ccccc32)n1`, the Kd was > 4 mM (inactive).

As for `NC(=O)CC(=O)NC12CC3CC(CC(C3)C1)C2`, the Kd is > 4 mM (inactive).

As to `COC(=O)CC1C(C)(C)C(OC(C)=O)[C@@H]2[C@@H](OC(C)=O)[C@]34O[C@@]2(O)[C@]1(C)C3CC[C@]1(C)C4=CC(=O)O[C@H]1c1ccoc1` (stereo not given in full), the Kd is > 4 mM (inactive).

As for `O=c1nc(N2CCCCC2)nc2n1CCO2`, the Kd is > 4 mM (inactive).

`O=C(c1ccc(N2CCNCC2)cc1)c1cccnc1`: the Kd was > 4 mM (inactive).

On to `COc1ccc(/C=C2/C(=O)N=C(N)N2C)cc1OC`, for which the Kd was > 4 mM (inactive).

Consider `CN1CCN(S(=O)(=O)c2ccc(=O)[nH]c2)CC1`, for which the Kd was > 4 mM (inactive).

Consider `CN1CN(Cc2ccccc2)CN/C1=N/[N+](=O)[O-]`, for which the Kd is > 4 mM (inactive).

Turning to `Cn1c(=O)[nH]c(=O)c2c1ncn2CCN1CCCCC1`, the Kd was > 4 mM (inactive).

On to `COc1ccc2c(c1)OC/C(=C/c1ccc(O)c(O)c1)C2=O`, for which the Kd was > 4 mM (inactive).

For `COC(=O)c1c(C)c2c(c(C)c1O)OC(=O)c1c(C)c(Cl)c(O)c(Cl)c1O2`, the Kd is > 4 mM (inactive).

As to `CCOc1ccc(C)cc1S(=O)(=O)n1ccc(C)n1`, the Kd is > 4 mM (inactive).

For `O=C(O)c1ccc(-n2ccnc2)cc1`, the Kd is > 4 mM (inactive).

As to `O=C(O)c1ccnn1-c1ccccc1`, the Kd was > 4 mM (inactive).

`CC1=C(CCC(=O)O)c2cc3nc(cc4[nH]c(cc5[nH]c(cc1n2)c(C)c5C(C)O)c(C)c4C(C)O)C(C)=C3CCC(=O)O` (stereo not given): the Kd was > 4 mM (inactive).

As for `Cn1c(O)c(/C=C2\C=CC=N2)c(=O)[nH]c1=S`, the Kd is > 4 mM (inactive).

Turning to `Nc1cccc2nsnc12`, the Kd was > 4 mM (inactive).

For `O=C(O)Cc1csc(-c2ccccc2)n1`, the Kd is > 4 mM (inactive).

On to `O=S(=O)(N1CCCCC1)n1nnc2ccccc21`, for which the Kd was > 4 mM (inactive).

On to `Cc1nc(SCC#N)c2c3c(sc2n1)CCC3`, for which the Kd was > 4 mM (inactive).

With `Clc1ncnc2[nH]ncc12`, the Kd is > 4 mM (inactive).

For `C#CCCCCCCCCCCCC(O)CC(O)COC(C)=O` (stereo not given), the Kd was > 4 mM (inactive).

As for `CC(=O)O[C@@H]1CC2C(C)(C)[C@H](O)CC[C@]2(C)C2CC[C@@]3(C)[C@H](c4ccoc4)OC(=O)C4OC43[C@@]21C` (stereo not given in full), the Kd is > 4 mM (inactive).

As to `O=C(NC(=S)NCc1cccnc1)c1ccco1`, the Kd is > 4 mM (inactive).

Consider `COc1cccc(-c2nc(-c3ccccn3)no2)c1OC`, for which the Kd was > 4 mM (inactive).

As to `O=C(O)C1CC(=O)N(Cc2ccc(F)cc2)C1` (stereo not given), the Kd is > 4 mM (inactive).

Regarding `O=C(Nc1ccc2c(c1)OCO2)c1cnn2cccnc12`, the Kd is > 4 mM (inactive).

For `Cc1ncoc1C(=O)Nc1ccccc1C(N)=O`, the Kd was > 4 mM (inactive).

As for `COc1c(O)cc2c(c1O)[C@H]1O[C@H](CO)[C@@H](O)[C@H](O)[C@@H]1OC2=O`, the Kd is > 4 mM (inactive).

Regarding `Nc1cc(=O)[nH]c(SCC(=O)Nc2nccs2)n1`, the Kd was > 4 mM (inactive).

`CN(C)c1nc(N2CCOCC2)nc(N2CCOCC2)n1`: the Kd is > 4 mM (inactive).

Take `O=C(Nc1ccc(N2CCOCC2)cc1)c1cnsn1`: the Kd is > 4 mM (inactive).

Take `O=c1[nH]cnc2nc[nH]c12`: the Kd was > 4 mM (inactive).

As to `COc1ccccc1NC(=O)NC(N)=O`, the Kd was > 4 mM (inactive).

For the compound `Cc1ccc2nc(SCC(=O)O)nc(C)c2c1`, the Kd was > 4 mM (inactive).

As to `NC(=O)c1cccnc1Oc1ccccc1`, the Kd is > 4 mM (inactive).

Turning to `COc1cc(C(=O)O[C@H]2CC[C@@]3(C)[C@@H]4CC[C@H]5[C@]6(O)C[C@H](O)[C@@]7(O)[C@@H](CN8C[C@@H](C)CC[C@H]8[C@@]7(C)O)[C@]6(O)C[C@@]53OC24O)cc(OC)c1OC`, the Kd was > 4 mM (inactive).

For `COC(=O)CCSCC(=O)Nc1nccs1`, the Kd was > 4 mM (inactive).

Turning to `COC(=O)c1ccc2nc[nH]c2c1`, the Kd is > 4 mM (inactive).

Turning to `COc1cc2c(cc1O)CC1c3c(cc(O)c(OC)c3-2)CCN1C` (stereo not given), the Kd is > 4 mM (inactive).

On to `N#CCN1C(=O)c2ccccc2S1(=O)=O`, for which the Kd was > 4 mM (inactive).

With `COc1ccc(-c2nc(C)sc2CC(=O)O)cc1`, the Kd is > 4 mM (inactive).

On to `CC(=O)CC1(O)C(=O)Nc2ccccc21` (stereo not given), for which the Kd is > 4 mM (inactive).

Take `COc1cc2c(cc1OC)C(=O)OC2`: the Kd is > 4 mM (inactive).

On to `COC(=O)/C(C)=C\CC12OC(C)(C)C3CC(C=C4C(=O)c5c(OC)c6c(c(CC=C(C)C)c5OC431)OC(C)(CCC=C(C)C)C=C6)C2=O` (stereo not given), for which the Kd is > 4 mM (inactive).

Turning to `Nc1nc2ccc(N3CCOCC3)cc2s1`, the Kd is > 4 mM (inactive).

Regarding `Cc1cccc(C)c1NC(=O)/C=C/C(=O)O`, the Kd was > 4 mM (inactive).

Regarding `COc1cc([C@H]2Oc3cc([C@H]4Oc5cc(O)cc(O)c5C(=O)[C@@H]4O)ccc3O[C@@H]2CO)ccc1O`, the Kd is > 4 mM (inactive).

As for `Cn1c(SCC(=O)NCCO)nc2ccccc2c1=O`, the Kd is > 4 mM (inactive).

Consider `Cc1cc(=O)oc2cc(O)c(O)cc12`, for which the Kd is > 4 mM (inactive).

As for `O=C1CCC(=O)N1c1ccc(O)cc1`, the Kd was > 4 mM (inactive).

In the case of `CON(C)C(=O)Nc1ccc(Cl)cc1`, the Kd was > 4 mM (inactive).

In the case of `Nc1cccc(S(=O)(=O)N2CCOCC2)c1`, the Kd is > 4 mM (inactive).

On to `NCc1ccc(-n2cccc2)cc1`, for which the Kd is > 4 mM (inactive).

For the compound `O=C(O)c1c[nH]c2ccccc12`, the Kd is > 4 mM (inactive).

In the case of `Cc1cc(C)cc(C(=O)N2CCC(C(N)=O)CC2)c1`, the Kd is > 4 mM (inactive).

In the case of `NC1=NN(c2ccccc2)C(=O)C1`, the Kd was > 4 mM (inactive).

For `CN1CCC(NC(=O)C2CCCO2)CC1` (stereo not given), the Kd is > 4 mM (inactive).

For `CC(=O)Oc1cc2c(C(C)=O)coc2c2ccccc12`, the Kd was > 4 mM (inactive).

For the compound `CN1CCN(CC(O)c2ccccc2)CC1` (stereo not given), the Kd was > 4 mM (inactive).

On to `Cc1nn(CC(=O)N2CCCCC2)c(=O)c2ccccc12`, for which the Kd was > 4 mM (inactive).

Turning to `COc1c(O)cccc1O`, the Kd is > 4 mM (inactive).

With `COC(=O)c1[nH]c2ccccc2c1C(=O)OC`, the Kd was > 4 mM (inactive).

With `CCc1c(C(=O)N2CCOCC2)csc1C`, the Kd is > 4 mM (inactive).

In the case of `Clc1ccc(-n2ccnc2)nn1`, the Kd is > 4 mM (inactive).

As for `O=S(=O)(Cc1ccccc1Cl)Nc1ccccn1`, the Kd was > 4 mM (inactive).

Turning to `CSc1nc(C)cc(-n2ccc(=O)[nH]c2=O)n1`, the Kd is > 4 mM (inactive).

On to `CC(C)(C#N)O[C@@H]1O[C@H](CO)[C@@H](O)[C@H](O)[C@H]1O`, for which the Kd is > 4 mM (inactive).

For `Cc1c(C(=O)NC2=NCCS2)oc2ccccc12`, the Kd was > 4 mM (inactive).

`Nc1cccnc1Oc1ccc(F)cc1F`: the Kd is > 4 mM (inactive).

In the case of `O=c1oc(-c2ccccc2)nc2c1cnn2-c1ccccc1`, the Kd was > 4 mM (inactive).

On to `Cc1cc2ncn(S(=O)(=O)N3CCOCC3)c2cc1C`, for which the Kd was > 4 mM (inactive).

On to `O=C1CNC(=O)N1Cc1ccc(Br)cc1`, for which the Kd was > 4 mM (inactive).

As for `CC(=O)Nc1cc(C(F)(F)F)ccc1N1CCOCC1`, the Kd is > 4 mM (inactive).

As for `CC(=O)c1cc2c(s1)SCC(=O)N2`, the Kd is > 4 mM (inactive).

As to `Nc1nc(-c2cccnc2)nn1C(=O)Cc1ccccc1`, the Kd was > 4 mM (inactive).

Regarding `CN1C(=O)c2ccc(N=C3NC(=O)CS3)cc2C1=O`, the Kd is > 4 mM (inactive).

With `CCCSc1nnc2[nH]c(=O)cc(N)n12`, the Kd is > 4 mM (inactive).

`O=C1NC(=O)C(C(C[N+](=O)[O-])c2ccc(O)cc2)C(=O)N1` (stereo not given): the Kd is > 4 mM (inactive).

Regarding `COc1cc(C(C)=O)cc(OC)c1O`, the Kd was > 4 mM (inactive).

Turning to `O=C(/C=C1\SC(=O)NC1=O)NCc1ccccc1`, the Kd is > 4 mM (inactive).

As for `O=C(Nc1cccnc1)c1c(F)c(F)c(F)c(F)c1F`, the Kd was > 4 mM (inactive).

As to `CC(C)(C)C(=O)Nc1ncc(C(F)(F)F)cc1Cl`, the Kd is > 4 mM (inactive).

Consider `O=CN1CCN(C2CC(=O)N(c3ccccc3)C2=O)CC1` (stereo not given), for which the Kd is > 4 mM (inactive).

For `Cc1cccc(NC(=O)CN2C(=O)CNC2=O)c1`, the Kd was > 4 mM (inactive).

In the case of `NC(N)=NCCCCN=C(N)N`, the Kd is > 4 mM (inactive).

As to `c1ccc2nc3c(nc2c1)CCc1nonc1-3`, the Kd was > 4 mM (inactive).

As to `COc1ccccc1Nc1nncc(=O)[nH]1`, the Kd was > 4 mM (inactive).

As to `CCOC(=O)c1sc(SC)c2c1CCCC2O` (stereo not given), the Kd was > 4 mM (inactive).

On to `Cc1nc(-c2ccccc2)ncc1CO`, for which the Kd was > 4 mM (inactive).

As a reminder, the Kd is the free concentration of one partner at which half of the binding sites on the other are occupied at equilibrium, for simple one-to-one binding.
